Test results published in US7638508B2, “Glucocorticosteroid compound having anti-inflammatory activity” (Glaxo Group Limited, priority 2003, dated 2009).

How the values were obtained:
Type in all cases: cell-based
glucocorticoid receptor [1] = molecular target: T1, glucocorticoid receptor (Homo sapiens, UniProt P04150); assay: MMTV-LTR renilla luciferase reporter assay in A549 cells (direct transactivation of gene expression); details: 6 hour at 37° C., read-out: maximal response relative to Dexamethasone (100%)
T1 sequence (P04150 1-777): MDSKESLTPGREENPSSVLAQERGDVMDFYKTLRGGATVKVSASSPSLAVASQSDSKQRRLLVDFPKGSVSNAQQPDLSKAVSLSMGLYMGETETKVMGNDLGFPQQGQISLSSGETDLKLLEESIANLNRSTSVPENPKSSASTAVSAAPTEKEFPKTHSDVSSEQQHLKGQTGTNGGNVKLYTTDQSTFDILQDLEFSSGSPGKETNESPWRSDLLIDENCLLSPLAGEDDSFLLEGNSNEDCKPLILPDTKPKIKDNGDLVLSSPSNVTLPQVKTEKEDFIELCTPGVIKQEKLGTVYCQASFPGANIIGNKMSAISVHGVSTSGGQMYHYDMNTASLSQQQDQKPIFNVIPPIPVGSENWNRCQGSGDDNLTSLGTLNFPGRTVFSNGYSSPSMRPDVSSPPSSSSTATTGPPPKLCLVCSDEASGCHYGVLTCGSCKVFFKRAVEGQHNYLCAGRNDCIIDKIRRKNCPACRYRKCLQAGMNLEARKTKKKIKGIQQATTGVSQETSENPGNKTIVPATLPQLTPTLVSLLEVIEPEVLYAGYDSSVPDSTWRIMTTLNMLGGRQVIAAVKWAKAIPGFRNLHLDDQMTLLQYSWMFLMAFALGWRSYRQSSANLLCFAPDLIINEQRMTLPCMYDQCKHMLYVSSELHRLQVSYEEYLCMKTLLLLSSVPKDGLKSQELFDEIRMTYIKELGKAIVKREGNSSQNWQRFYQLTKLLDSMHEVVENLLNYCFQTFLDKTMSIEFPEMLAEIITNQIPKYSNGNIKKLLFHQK
Method: (§1) Pharmacological activity may be assessed in functional in vitro assays of glucocorticoid agonist activity.
The functional assay based on that described by R. J. H. Austin et al., Eur Resp J. (2002), 20, 1386-1392 measures the ability of compounds to directly transactivate gene expression. A549 cells stably transfected with a reporter gene containing the glucocorticoid responsive region of the mouse mammary tumour virus long terminal repeat (MMTV-LTR) coupled to renilla luciferase were treated with test compounds at appropriate doses for 6 hour at 37° C. The amount of luciferase activity present within the cells is then determined by measuring the light emitted following incubation with a suitable substrate.

glucocorticoid receptor [2] = molecular target: T1, glucocorticoid receptor; assay: NF-κB/ELAM promoter sPAP reporter assay in A549 cells, TNF stimulated (transrepressive activity of a glucocorticoid agonist); design: A549 cells stably transfected with a reporter gene containing the NF-κB responsive elements; endogenous in cells; host or cells: A549 cells; details: compound 1 hour at 37° C., then TNF 10 ng/ml for 16 hours, read-out: EC50 (transrepression, NF-κB sPAP reporter)
Method: as §1
The functional assay based on that described by K. P. Ray et al., Biochem J. (1997), 328, 707-715 provides a measure of transrepressive activity of a glucocorticoid agonist. A549 cells stably transfected with a reporter gene containing the NF-κB responsive elements from the ELAM gene promoter coupled to sPAP (secreted alkaline phosphatase) are treated with test compounds at appropriate doses for 1 hour at 37° C. The cells are then stimulated with tumour necrosis factor (TNF, 10 ng/ml) for 16 hours, at which time the amount of alkaline phosphatase produced is measured by a standard colourimetric assay. Dose response curves are constructed from which EC50 values may be estimated.

Progesterone Receptor = molecular target: T2, Progesterone Receptor (Homo sapiens, UniProt P06401); assay: Assay for Progesterone Receptor Activity: alkaline phosphatase upregulation in T47D cells; details: 24 hours at 37° C.
T2 construct: The human breast cancer cell line T47D has been reported to upregulate an endogenous alkaline phosphatase in response to progestins; endogenous in cells; host or cells: T47D cells
T2 sequence (P06401 1-933): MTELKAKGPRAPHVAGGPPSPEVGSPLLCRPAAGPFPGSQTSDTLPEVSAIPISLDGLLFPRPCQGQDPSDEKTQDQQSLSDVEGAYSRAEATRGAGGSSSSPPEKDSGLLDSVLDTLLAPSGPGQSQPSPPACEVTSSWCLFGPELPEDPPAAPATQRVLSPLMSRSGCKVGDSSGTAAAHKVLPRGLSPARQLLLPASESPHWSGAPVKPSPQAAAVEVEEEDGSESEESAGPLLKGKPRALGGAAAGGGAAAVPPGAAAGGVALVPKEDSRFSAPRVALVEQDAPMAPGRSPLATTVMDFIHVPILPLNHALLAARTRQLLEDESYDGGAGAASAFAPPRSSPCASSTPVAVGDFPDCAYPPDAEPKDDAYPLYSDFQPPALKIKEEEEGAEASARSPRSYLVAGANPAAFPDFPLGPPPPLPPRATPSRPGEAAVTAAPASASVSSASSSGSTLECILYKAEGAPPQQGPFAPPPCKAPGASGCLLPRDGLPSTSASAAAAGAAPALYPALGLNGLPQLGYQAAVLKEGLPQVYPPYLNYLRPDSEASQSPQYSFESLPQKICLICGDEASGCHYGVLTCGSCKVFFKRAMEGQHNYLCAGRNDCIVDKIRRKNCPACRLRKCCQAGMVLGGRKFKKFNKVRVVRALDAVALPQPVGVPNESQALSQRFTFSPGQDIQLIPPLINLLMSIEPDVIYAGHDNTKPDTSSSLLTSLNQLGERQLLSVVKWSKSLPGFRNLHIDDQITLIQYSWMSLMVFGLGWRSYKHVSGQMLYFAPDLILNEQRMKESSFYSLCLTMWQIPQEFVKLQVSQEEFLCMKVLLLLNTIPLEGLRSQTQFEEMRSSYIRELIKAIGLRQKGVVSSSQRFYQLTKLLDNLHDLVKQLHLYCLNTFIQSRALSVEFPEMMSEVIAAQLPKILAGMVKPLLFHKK
Method: Assay for Progesterone Receptor Activity
The human breast cancer cell line T47D has been reported to upregulate an endogenous alkaline phosphatase in response to progestins (Di Lorenzo et al., Cancer Research (1991) 51, 4470-4475. T47D cells were seeded into 96 well plates at a density of 1×10^5 cells per well and grown overnight at 37° C. Steroids were dissolved in DMSO, added to the cells (final DMSO concentration 0.7%), and incubated for 24 hours at 37° C. The cells were then washed with PBS and lysed with RIPA buffer (1% IGEPAL, 0.5% Na deoxycholate, 0.1% SDS in phosphate buffered saline). Alkaline phosphatase activity was measured spectrophotometrically (405 nm) using p-nitrophenylphosphate (1.5 mg/ml) as a substrate dissolved in 1 M diethanolamine, 0.28M NaCl, 0.5 mM MgCl2. Dose response curves were constructed from which EC50 values were estimated.

Work on `C[C@@H]1C[C@H]2[C@@H]3C[C@H](F)C4=CC(=O)C=C[C@]4(C)[C@@]3(F)[C@@H](O)C[C@]2(C)[C@@]1(OC(=O)c1ccc(C#N)cc1)C(=O)OCC#N` [Example 8, 17α-(4-Cyanobenzoyl)oxy-6α,9α-difluoro-11β-hydroxy-16α-methyl-3-oxo-androsta-1,4-diene-17β-carboxylic Acid Cyanomethyl Ester] yielded an Emax (glucocorticoid receptor [1]) of less than 35%, an EC50 (glucocorticoid receptor [2]) of no more than 0.1 nM and an EC50 (Progesterone Receptor) greater than 100 nM.
Work on `CSc1ccc(C(=O)O[C@]2(C(=O)OCC#N)[C@H](C)C[C@H]3[C@@H]4C[C@H](F)C5=CC(=O)C=C[C@]5(C)[C@@]4(F)[C@@H](O)C[C@@]32C)s1` [Example 15, 6α,9α-Difluoro-11β-hydroxy-16α-methyl-17α-(5-methylthio-thiophene-2-carbonyl)oxy-3-oxo-androsta-1,4-diene-17β-carboxylic Acid Cyanomethyl Ester] yielded an Emax (glucocorticoid receptor [1]) of less than 35% and an EC50 (glucocorticoid receptor [2]) of no more than 0.1 nM.
With `C[C@@H]1C[C@H]2[C@@H]3C[C@H](F)C4=CC(=O)CC[C@]4(C)[C@@]3(F)[C@@H](O)C[C@]2(C)[C@@]1(OC(=O)C1C(C)(C)C1(C)C)C(=O)OCC#N` [Example 18, 6α,9α-Difluoro-11β-hydroxy-16α-methyl-3-oxo-17α-(2,2,3,3-tetramethycyclopropylcarbonyl)oxy-androst-4-ene-17 b-carboxylic Acid Cyanomethyl Ester] the Emax (glucocorticoid receptor [1]) was less than 35% and the EC50 (Progesterone Receptor) was greater than 100 nM.
With `C[C@@H]1C[C@H]2[C@@H]3C[C@H](F)C4=CC(=O)C=C[C@]4(C)[C@@]3(F)[C@@H](O)C[C@]2(C)[C@@]1(OC(=O)C1C(C)(C)C1(Cl)Cl)C(=O)OCC#N` (stereo partly drawn) [Example 20, 17α-(2,2-Dichloro-3,3-dimethylclopropylcarbonyl)oxy-6α,9α-difluoro-11β-hydroxy-16α-methyl-3-oxo-androsta-1,4-diene-17β-carboxylic Acid Cyanomethyl Ester] the Emax (glucocorticoid receptor [1]) was less than 35%, the EC50 (glucocorticoid receptor [2]) was no more than 0.1 nM and the EC50 (Progesterone Receptor) was greater than 100 nM.
Compound `C[C@@H]1C[C@H]2[C@@H]3C[C@H](F)C4=CC(=O)C=C[C@]4(C)[C@@]3(F)[C@@H](O)C[C@]2(C)[C@@]1(OC(=O)c1ccc(S(C)(=O)=O)s1)C(=O)SCC#N` [Example 23, 6α,9α-Difluoro-11β-hydroxy-16α-methyl-17α-(5-methylsulphonyl-thiophene-2-carbonyl)oxy-3-oxo-androsta-1,4-diene-17β-carbothioic Acid S-cyanomethyl Ester] has an Emax (glucocorticoid receptor [1]) of less than 35% and an EC50 (Progesterone Receptor) greater than 100 nM.
With `C[C@@H]1C[C@H]2[C@@H]3C[C@H](F)C4=CC(=O)C=C[C@]4(C)[C@@]3(F)[C@@H](O)C[C@]2(C)[C@@]1(OC(=O)c1ccc(C(F)(F)F)o1)C(=O)SCC#N` [Example 24, 6α,9α-Difluoro-11β-hydroxy-16α-methyl-3-oxo-17α-(5-trifluoromethyl-furan-2-carbonyl)oxy-androsta-1,4-diene-17β-carbothioic Acid S-cyanomethyl Ester] the Emax (glucocorticoid receptor [1]) was less than 35% and the EC50 (Progesterone Receptor) was greater than 100 nM.
`C[C@@H]1C[C@H]2[C@@H]3C[C@H](F)C4=CC(=O)C=C[C@]4(C)[C@@]3(F)[C@@H](O)C[C@]2(C)[C@@]1(OC(=O)c1cccc(SC(F)F)c1)C(=O)SCC#N` [Example 25, 6α,9α-Difluoro-17α-(3-(difluoromethylthio)benzoyl)oxy-11β-hydroxy-16α-methyl-3-oxo-androsta-1,4-diene-17β-carbothioic Acid S-cyanomethyl Ester] was tested, and the Emax (glucocorticoid receptor [1]) was less than 35% and the EC50 (Progesterone Receptor) was greater than 100 nM.
